The values that follow come from patent US20260226128A1, “Capped Peptides and Methods for Using the Same” (The Board of Trustees of the Leland Stanford Junior …, priority 2023, published 2026).

Where a SMILES comes first, the peptide text is derived from it.

The target in one series is T1, human TACR1 (Homo sapiens, UniProt P25103).
T1 construct: host or cells: PathHunter beta-arrestin CHO-K1 cells
In words: human TACR1-beta arrestin recruitment assay (PathHunter beta-arrestin CHO-K1 cells). It counts as cell-based. As to conditions: human TACR1-transfected PathHunter beta-arrestin CHO-K1 cells. The text has this: (§1) FIG. 4. […] (A) Schematic and annotation of the primary amino acid sequence for full-length mouse TAC1 preproprotein and its cleavage products. […] For (B), N=2 per concentration; for (C), N=3 per condition. For (B,C), data are shown as means±SEM. * P<0.05, ** P<0.01 versus control by Student's t-test.

Series [1] in a line: Half-life of peptides incubated in mouse plasma, levels by LC-MS. The protocol:
as §1
Half-life calculations of CAP-TAC1 in plasma. 10 µM of either synthetic CAP-TAC1 or SP was incubated with 100 μl of mouse plasma. Samples were incubated at 37° C. for 0, 10, 30, 60, or 90 minutes (N=3 for each time point). At the indicated time point, 1 μl of HALT protease inhibitor was immediately added, and plasma was boiled and prepared using the peptidomics workflow described above. […] Half-lives were calculated using an exponential decay fit.

The test system of series [2] is diet induced obese mice. Put plainly: Daily CAP-TAC1 treatment of diet induced obese mice with pair fed group. Format: in vivo, mouse. As to conditions: 10 mg/kg daily. The method, then: FIG. 10. […] (A) Body weight change and (B) food intake of diet induced obese mice injected with vehicle (18:1:1 Saline: DMSO: Kolliphor EL), 10 mg/kg CAP-TAC1 (pGlu-FFGLM-NH2), and vehicle pair fed to CAP-TAC1 group. (N=6 for vehicle, N=7 for CAP-TAC1 and pair fed groups, error bars are SEM, and P values calculated with two-way ANOVA.)
CAP-TAC1 treatments in mice. Injected diet induced obese (on high fat diet, 4 months old, male, C57BL/6J, Jackson cat #380050) mice daily with vehicle (18:1:1 Saline: DMSO: Kolliphor EL) or 10 mg/kg CAP-TAC1 (pGlu-FFGLM-NH2). The pair fed group was started one day later and fed the same food the CAP-TAC1 mice ate daily. Mice were singly housed and injected daily ~12 μm. Mouse body weights and food weights were measured at the same time. (N=6 for vehicle, N=7 for CAP-TAC1 and pair fed groups.)

Series [3] concerns diet induced obese mice. In words: Oxygen consumption after single CAP-TAC1 injection, metabolic chambers. Format: in vivo, mouse. To be noted: single injection at T=0, 10 mg/kg (FIG. 11 legend), over 24 hours. The method, then: FIG. 11. CAP-TAC1 acutely induces oxygen consumption over 24 hours. Oxygen consumption (VO2) of diet induced obese mice injected with a single injection at T=0 vehicle (18:1:1 Saline: DMSO: Kolliphor EL) or 10 mg/kg CAP-TAC1 (pGlu-FFGLM-NH2). (N=4 for vehicle and CAP-TAC1 groups, error bars are SEM, and P values calculated with two-way ANOVA.)
Metabolic chamber studies. For acute energy expenditure studies, food intake, RER, movement, VO2, and VCO2 were collected with CLAMS Oxymax Metabolic Cages. Mice were placed individual metabolic cages for 24 hours prior to experiment. For CAP-GDF15 experiments, mice were injected with either vehicle, 50 mg/kg CAP-GDF15, or 50 mg/kg scrambled CAP-GDF15 at 5 μm at T=0. For CAP-TAC1 experiments, mice were injected with either vehicle (18:1:1 Saline: DMSO: Kolliphor EL) or […] CAP-TAC1 (pGlu-FFGLM-NH2) at ~12 μm (T=0). Food intake, RER, movement, VO2, and VCO2 were collected every 7 minutes for […] immediately after injection. All experiments were done with 3-5 month old DIO mice (Jackson, stock 380050), fed high fat diet ad libitum.

For series [4], the system named is diet induced obese mice. Put plainly: Food intake 2 hours post injection of CAP-GDF15 human homologue. Format: in vivo, mouse. To be noted: 50 mg/kg, single injection, versus vehicle. The method, then:
FIG. 12. Human CAP-GDF15 homologue inhibits food intake. Food intake of diet induced obese mice 2 hours post injection with vehicle or 50 mg/kg CAP-GDF15 human homologue (pGlu-[…]-NH2). (N=8 mice/group, error bars are SEM, and P values calculated with two-sided Student's T test.)
Human CAP-GDF15 treatments in mice. Singly housed diet induced obese (on high fat diet, 4 months old, male, C57BL/6J, Jackson cat #380050) mice were injected with vehicle (18:1:1 Saline: DMSO: Kolliphor EL) or 50 mg/kg CAP-GDF15 human homologue (pGlu-[…]-NH2) once at ~5 μm. Food weight was measured before injection and 2 hours post to calculated food intake. (N=8 mice/group)

The half-life is how long it takes for the measured level to halve.

T1 sequence (P25103 whole entry): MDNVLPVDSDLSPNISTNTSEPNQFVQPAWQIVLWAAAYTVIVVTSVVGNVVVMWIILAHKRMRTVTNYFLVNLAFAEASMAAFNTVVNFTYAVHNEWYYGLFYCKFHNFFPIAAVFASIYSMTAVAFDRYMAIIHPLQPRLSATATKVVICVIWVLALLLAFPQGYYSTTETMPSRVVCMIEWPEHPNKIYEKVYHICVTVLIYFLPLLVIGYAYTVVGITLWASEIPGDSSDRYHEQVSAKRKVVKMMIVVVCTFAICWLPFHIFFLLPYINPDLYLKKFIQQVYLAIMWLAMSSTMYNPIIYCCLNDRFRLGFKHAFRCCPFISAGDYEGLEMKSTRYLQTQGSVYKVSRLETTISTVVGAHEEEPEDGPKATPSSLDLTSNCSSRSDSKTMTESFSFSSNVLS

In the case of `CSCC[C@H](NC(=O)[C@H](CC(C)C)NC(=O)CNC(=O)[C@H](Cc1ccccc1)NC(=O)[C@H](Cc1ccccc1)NC(=O)[C@@H]1CCC(=O)N1)C(N)=O` [CAP-TAC1, pGlu-FFGLM-NH2] (HELM PEPTIDE1{[Glp].F.F.G.L.M.[am]}$$$$V2.0), the EC50 on human TACR1 (read-out: ED50, agonism of TACR1) came out at 0.7 nM. Further, the Emax on human TACR1 (read-out: maximal activation, % of maximal response) was found to be 96.6%. In series [1], the “peptide level in mouse plasma after 90 min” value is “still detectable”. This molecule also displayed a half-life at 10 µM in series [1] (mouse, plasma) of 14.4 min. Besides, in the series on diet induced obese mice [2] (versus vehicle), the food intake entry is reported as “independent of any changes of food intake”. Also, the body weight change entry with diet induced obese mice [2] (versus vehicle and pair fed group) is given as “induces body weight loss”. In addition, in the series on diet induced obese mice [3], the “oxygen consumption (VO2)” value is given as “induces an increase in oxygen consumption”.

Regarding “pGlu-LELHLRPQAAR-NH2 (HELM PEPTIDE1{[Glp].L.E.L.H.L.R.P.Q.A.A.R.[am]}$$$$V2.0; SMILES CC(C)C[C@H](NC(=O)[C@@H]1CCC(=O)N1)C(=O)N[C@@H](CCC(=O)O)C(=O)N[C@@H](CC(C)C)C(=O)N[C@@H](Cc1c[nH]cn1)C(=O)N[C@@H](CC(C)C)C(=O)N[C@@H](CCCNC(=N)N)C(=O)N1CCC[C@H]1C(=O)N[C@@H](CCC(N)=O)C(=O)N[C@@H](C)C(=O)N[C@@H](C)C(=O)N[C@@H](CCCNC(=N)N)C(N)=O) [human homologue of CAP-GDF15]”, the “food intake 2 hours post injection” value in the series with diet induced obese mice [4] was “acutely inhibits food intake”.
